Results as given in patent US4486415A, “Cyclic hexapeptide somatostatin analogs” (Merck & Co., Inc., priority 1983, dated 1984).
Square brackets hold non-standard residues; d marks the D form. Peptide text beside a SMILES is read from it. NMeF = CN[C@@H](Cc1ccccc1)C(=O)O; NMeK = CN[C@@H](CCCCN)C(=O)O; dNMeK = CN[C@H](CCCCN)C(=O)O

What was measured:
growth hormone = test: in vitro test for the inhibition of growth hormone release, cultured rat pituitary cells; assay type: cell-based; conditions: multiples or fractions of the effect of somatostatin (=1), fiducial limits in parentheses, 4 hours incubation
Description: The instant cyclic hexapeptide analogs of somatostatin are tested and compared with the effects of somatostatin in an in vitro test for the inhibition of growth hormone. The test is described as follows:
"Rat pituitaries were isolated according to the procedures of Vale and Grant "In vitro Pituitary Hormone Secretion Assay for Hypophysiotropic Substances" in Methods in Enzymology, Vol. XXXVII, eds. O'Malley, B.W. and Hardman, J.G. (Academic Press, Inc., New York) pp. 5-93 (1975).
After 4 days in culture, the cells were washed and incubated for 4 hours in Dulbecco-modified Eagle's medium in the presence or absence of graded doses of each analog or somatostatin. The medium was then collected for subsequent growth hormone determinatin by a double antibody radioimmunoassay for rat growth hormone."

portal vein insulin = test: decrease of portal vein insulin in anesthetized rats; assay type: in vivo, rat; conditions: multiples or fractions of the effect of somatostatin (=1), fiducial limits in parentheses, external jugular vein, portal blood after 5 minutes
Description: (§1) Analogs of somatostatin were compared to somatostatin in their ability to decrease the levels of portal vein glucagon and insulin in anesthetized rates. Male Sprague-Dawley rats (Charles River CD) weighing 160-200 g were anesthetized with urethane (150 mg/100 g of body weight; Aldrich). Saline or peptides were administered via the external jugular vein. After 5 minutes, the portal vein was exposed, and blood was collected via syringe containing 3 mg of EDTA and placed in chilled tubes containing 100 μl of Trasylol (FBA Pharmaceuticals) for subsequent hormone analysis. Plasma levels of glucagon were determined by the method of Faloona and Unger, Methods of Hormone Radioimmunoassay, Jaffe and Behrman (Eds), Academic Press, New York, Vol. II, pp. 257-527 (1976), utilizing glucagon antisera 30K obtained from R. Unger (Dallas, TX). Plasma levels of insulin were determined by a modification of the procedure of Herbert et al., J. Clin. Endocrinol. Metab., 25, 1375-1384 (1965).

portal vein glucagon = test: decrease of portal vein glucagon in anesthetized rats; assay type: in vivo, rat; conditions: multiples or fractions of the effect of somatostatin (=1), fiducial limits in parentheses, external jugular vein, portal blood after 5 minutes
Description: as §1

[1] = tested on: pentagastrin evoked gastric secretion; test: inhibition of pentagastrin evoked gastric secretion in the chronic fistula dog; assay type: in vivo; conditions: Dose 0.8 μg/ml./min., infusion 0-60 min., relative to placebo trial; for Gastric Secretion & Inhibition, Acid Concentration 0-30 / Gastric Secretion & Inhibition, Vol. 0-30: 0-30 min; for Gastric Secretion & Inhibition, Acid Concentration 30-60 / Gastric Secretion & Inhibition, Vol. 30-60: 30-60 min; for Gastric Secretion & Inhibition, Acid Concentration 60-90 / Gastric Secretion & Inhibition, Vol. 60-90: 60-90 min; for Gastric Secretion & Inhibition, Acid Concentration 90-120 / Gastric Secretion & Inhibition, Vol. 90-120: 90-120 min
Description: The effects of the instant cyclichexapeptide analogs of somatostatin are determined by the following procedure.
Compounds were tested for their ability to inhibit pentagastrin evoked gastric secretion in the chronic fistula dog. Female beagle dogs with a chronic gastric fistula were given pentagastrin (2.5 μg./kg./hour, i.v. from -60 to 120 min.) and gastric outputs were collected via the fistula cannula. Samples were analyzed at 30 minute intervals for volume (Ml.) and titratable acid (mEq/L) (Titration to pH 7 with 0.01N NaOH); total acid output (mEq) was calculated as the production of output volume and acid concentration. Test compounds were infused at a constant rate from 0 to 60 minutes. Data have been expressed as percent change of total acid output relative to a placebo trial in the same animals.

SMILES | Growth Hormone Release Inhibition (growth hormone) | Insulin Inhibition (portal vein insulin) | Glucagon Inhibition (portal vein glucagon) | Gastric Secretion & Inhibition, Acid Concentration 0-30 [1] | Gastric Secretion & Inhibition, Vol. 0-30 [1] | Gastric Secretion & Inhibition, Acid Concentration 30-60 [1] | Gastric Secretion & Inhibition, Vol. 30-60 [1] | Gastric Secretion & Inhibition, Acid Concentration 60-90 [1] | Gastric Secretion & Inhibition, Vol. 60-90 [1] | Gastric Secretion & Inhibition, Acid Concentration 90-120 [1] | Gastric Secretion & Inhibition, Vol. 90-120 [1]
C[C@@H](O)[C@@H]1NC(=O)[C@H](CCCCN)NC(=O)[C@@H](Cc2c[nH]c3ccccc23)NC(=O)[C@H](Cc2ccccc2)NC(=O)[C@@H]2CCCN2C(=O)[C@H](Cc2ccccc2)N(C)C1=O [Cyclo(D-Trp-Lys-Thr-N-Me-Phe-Pro-Phe)] (cyclo(F[dW]KT[NMeF]P)) | 0.53(0.34,0.82) | 1.1(0.6,1.7) | 2.0 | – | – | – | – | – | – | – | –
C[C@@H](O)[C@@H]1NC(=O)[C@H](CCCCN)N(C)C(=O)[C@@H](Cc2c[nH]c3ccccc23)NC(=O)[C@H](Cc2ccccc2)NC(=O)[C@@H]2CCCN2C(=O)[C@H](Cc2ccccc2)NC1=O [Cyclo(D-Trp-N-Me-Lys-Thr-Phe-Pro-Phe)] (cyclo(FPF[dW][NMeK]T)) | 1.6(0.7,3.4) | 0.5(0.1,1.8) | Active | 9% | 78% | 49% | 82% | 43% | 61% | 32% | 60%
C[C@@H](O)[C@@H]1NC(=O)[C@@H](CCCCN)N(C)C(=O)[C@H](Cc2c[nH]c3ccccc23)NC(=O)[C@H](Cc2ccccc2)NC(=O)[C@@H]2CCCN2C(=O)[C@H](Cc2ccccc2)NC1=O [Cyclo(Pro--Phe--L-Trp--D-N--Me--Lys--Thr--Phe)] (cyclo(FPFW[dNMeK]T)) | 0.05(0.04,0.07) | 0.07 | – | – | – | – | – | – | – | – | –
C[C@@H](O)[C@@H]1NC(=O)[C@@H](CCCCN)N(C)C(=O)[C@@H](Cc2c[nH]c3ccccc23)NC(=O)[C@H](Cc2ccccc2)NC(=O)[C@@H]2CCCN2C(=O)[C@H](Cc2ccccc2)NC1=O [Cyclo-(Pro-Phe-D-Trp-N-Me-D-Lys-Thr-Phe)] (cyclo(FPF[dW][dNMeK]T)) | 1.5(1.2,1.9) | 0.4(0.01,1.9) | 0.4 | 44% | 82% | 51% | 89% | 6% | 49% | 0% | 60%
C[C@@H](O)[C@@H]1NC(=O)[C@H](CCCCN)N(C)C(=O)[C@H](Cc2c[nH]c3ccccc23)NC(=O)[C@H](Cc2ccccc2)NC(=O)[C@@H]2CCCN2C(=O)[C@H](Cc2ccccc2)NC1=O [Cyclo-(Pro-Phe-L-Trp-N-Me-Lys-Thr-Phe)] (cyclo(FPFW[NMeK]T)) | 0.1(0.09,0.2) | 0.3(0.1,0.7) | 0.2 | – | – | – | – | – | – | – | –
